This is an account of results in US7105558B2, “Gastrin and cholecystokinin receptor lignads (iv)” (The James Black Foundation Limited, priority 2000, dated 2006).

The experiment deals with T1, gastrin (CCK2) receptors (Rattus norvegicus, UniProt P30553).
T1 construct: The stomach was excised and flushed with ca. 1 ml of unbuffered physiological saline solution; from tissue; host or cells: isolated whole stomach of immature rats (33-50 g, ca. 21 days old)
T1 sequence (P30553 1-452): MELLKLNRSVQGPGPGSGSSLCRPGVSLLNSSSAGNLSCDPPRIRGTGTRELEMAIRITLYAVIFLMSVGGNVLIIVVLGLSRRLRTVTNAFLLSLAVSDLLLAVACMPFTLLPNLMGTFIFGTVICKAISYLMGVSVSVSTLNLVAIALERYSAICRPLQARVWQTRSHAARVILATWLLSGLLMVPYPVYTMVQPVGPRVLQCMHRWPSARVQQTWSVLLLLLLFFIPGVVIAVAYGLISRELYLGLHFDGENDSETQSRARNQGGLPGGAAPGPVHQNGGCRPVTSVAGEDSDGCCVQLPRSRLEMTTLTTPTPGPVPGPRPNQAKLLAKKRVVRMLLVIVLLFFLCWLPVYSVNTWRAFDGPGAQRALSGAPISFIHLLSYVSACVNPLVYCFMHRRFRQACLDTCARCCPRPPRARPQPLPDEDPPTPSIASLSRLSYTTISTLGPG
In words: immature rat stomach assay for gastrin (CCK2) antagonist activity (pentagastrin-stimulated acid secretion). The following applies: isolated immature rat stomach, antagonism of pentagastrin dose-response curves, 60 min incubation, tested as N-methyl D-glucamine salts; for Kb: read-out: Rat stomach pKB (converted). The procedure:
The compounds of the examples were tested for gastrin (CCK2) antagonist activity in an immature rat stomach assay. The procedure was as follows:
The oesophagus of immature rats (33-50 g, ca. 21 days old) was ligated at the level of the cardiac sphincter and the duodenal sphincter was cannulated. The stomach was excised and flushed with ca. 1 ml of unbuffered physiological saline solution. The fundus was punctured and cannulated. A further 4-5 ml of unbuffered solution was flushed through the stomach to ensure the preparation was not leaking. The stomach was lowered into a jacketed organ bath containing 40 ml of buffered solution containing 3×10^−8 M 5-methylfurmethide, maintained at 37° and gassed vigorously with 95% O2/5% CO2. The stomach was continuously perfused at a rate of 1 ml min^−1 with unbuffered solution gassed with 100% O2 with the perfusate passing over an internally referenced pH-electrode fixed 12 cm above the stomach.
After 120 min of stabilisation the drugs were added directly to the serosal solution in the organ bath and after a further 60 min cumulative pentagastrin dose-response curves were started. Changes in acid secretion were monitored and the curves analysed according to Black et al, Br. J. Pharmacol., 1985, 86, 581.

`O=C(O)c1cccc(NC(=O)c2nn(-c3c(Cl)cccc3Cl)nc2COc2ccccc2)c1` [Example 28, 3-{[2-(2,6-Dichloro-phenyl)-5-phenoxymethyl-2H-[1,2,3]triazole-4-carbonyl]-amino}-benzoic acid]: the Kb is 1230 nM. With `Cc1ccc(C)c(-n2nc(COC34CC5CC(CC(C5)C3)C4)c(C(=O)Nc3cccc(C(=O)O)c3)n2)c1` [Example 22, 3-[[5-(Adamantan-1-yloxymethyl)-2-(2,5-dimethyl-phenyl)-2H-[1,2,3]triazole-4-carbonyl]-amino]-benzoic acid], the Kb was 282 nM. `O=C(O)c1cccc(NC(=O)c2c(COC34CC5CC(CC(C5)C3)C4)nnn2C2CCCCCC2)c1` [Example 32, 3-{[5-(Adamantan-1-yloxymethyl)-3-cycloheptyl-3H-[1,2,3]triazole-4-carbonyl]-amino}-benzoic acid]: the Kb is 3720 nM.

For the compound `O=C(O)c1cccc(NC(=O)c2nn(-c3ccccc3-c3ccccc3)nc2COC23CC4CC(CC(C4)C2)C3)c1` [Example 21, 3-[[5-(Adamantan-1-yloxymethyl)-2-(biphenyl-2-yl)-2H-[1,2,3]triazole-4-carbonyl]-amino]-benzoic acid], the Kb was 240 nM. For the compound `O=C(O)c1cccc(NC(=O)c2nn(-c3cccc4ccccc34)nc2COC23CC4CC(CC(C4)C2)C3)c1` [Example 18, 3-[[5-(Adamantan-1-yloxymethyl)-2-naphthalen-1-yl-2H-[1,2,3]triazole-4-carbonyl]-amino]-benzoic acid], the Kb was 1510 nM. For `Nc1ccccc1-n1nc(COC23CC4CC(CC(C4)C2)C3)c(C(=O)Nc2cccc(C(=O)O)c2)n1` [Example 27], the “Rat stomach pKB” value was found to be 6.67 ± 0.17.

As for `O=C(O)c1cccc(NC(=O)c2nn(C3CCCCC3)nc2COC23CC4CC(CC(C4)C2)C3)c1` [Example 2, 3-[[5-(Adamantan-1-yloxymethyl)-2-cyclohexyl-2H-[1,2,3]triazole-4-carbonyl]-amino]-benzoic acid], the Kb is 47.9 nM. Take `O=C(O)c1cccc(NC(=O)c2nnn(-c3ccccc3Cl)c2COC23CC4CC(CC(C4)C2)C3)c1` [Example 6, 3-[[5-(Adamantan-1-yloxymethyl)-1-(2-chloro-phenyl)-1H-[1,2,3]triazole-4-carbonyl]-amino]-benzoic acid]: the Kb is 93.3 nM. As for `O=C(O)c1cccc(NC(=O)c2nn[nH]c2COC23CC4CC(CC(C4)C2)C3)c1` [Example 24, 3-[[5-(Adamantan-1-yloxymethyl)-1/2/3H-[1,2,3]triazole-4-carbonyl]-amino]-benzoic acid], the “Rat stomach pKB” value was 5.65 ± 0.33. For the compound `COc1ccccc1-n1nc(COC23CC4CC(CC(C4)C2)C3)c(C(=O)Nc2cccc(C(=O)O)c2)n1` [Example 10, 3-[[5-(Adamantan-1-yloxymethyl)-2-(2-methoxy-phenyl)-2H-[1,2,3]triazole-4-carbonyl]amino]-benzoic acid], the Kb was 41.7 nM.

Consider `O=C(O)c1cccc(NC(=O)c2nn(-c3ccccc3)nc2COC23CC4CC(CC(C4)C2)C3)c1` [Example 20, 3-[[5-(Adamantan-1-yloxymethyl)-2-phenyl-2H-[1,2,3]triazole-4-carbonyl]-amino]-benzoic acid], for which the Kb is 2090 nM. For the compound `O=C(O)c1cccc(NC(=O)c2nn(-c3c(Cl)cc(Cl)cc3Cl)nc2COC23CC4CC(CC(C4)C2)C3)c1` [Example 4, 3-[[5-(Adamantan-1-yloxymethyl)-2-(2,4,6-trichlorophenyl)-2H-[1,2,3]triazole-4-carbonyl]-amino]-benzoic acid], the Kb was 191 nM. In the case of `O=C(O)c1cccc(NC(=O)c2nn(-c3ccccc3Br)nc2COC23CC4CC(CC(C4)C2)C3)c1` [Example 13, 3-[[5-(Adamantan-1-yloxymethyl)-2-(2-bromo-phenyl)-2H-[1,2,3]triazole-4-carbonyl]-amino]-benzoic acid], the Kb was 95.5 nM. As to `O=C(O)c1cccc(NC(=O)c2nn(C3CC4CCC3C4)nc2COC23CC4CC(CC(C4)C2)C3)c1` (stereo not drawn) [Example 11, Endo-3-[[5-(Adamantan-1-yloxymethyl)-2-bicyclo[2.2.1]hept-2-yl-2H-[1,2,3]triazole-4-carbonyl]-amino]-benzoic acid], the “Rat stomach pKB” value came to 8.37 ± 0.22.

In the case of `O=C(O)c1cccc(NC(=O)c2nn(-c3c(Cl)cccc3Cl)nc2COC2CCCCC2)c1` [Example 30, 3-{[5-Cyclohexyloxymethyl-2-(2,6-dichloro-phenyl)-2H-[1,2,3]triazole-4-carbonyl]-amino}-benzoic acid], the Kb was 275 nM. Regarding `O=C(O)c1cccc(NC(=O)c2nn(-c3ccccc3F)nc2COC23CC4CC(CC(C4)C2)C3)c1` [Example 12, 3-[[5-(Adamantan-1-yloxymethyl)-2-(2-fluoro-phenyl)-2H-[1,2,3]triazole-4-carbonyl]-amino]-benzoic acid], the Kb was 174 nM. On to `Cc1ccccc1-n1nc(COC23CC4CC(CC(C4)C2)C3)c(C(=O)Nc2cccc(C(=O)O)c2)n1` [Example 1, 3-[[5-(Adamantan-1-yloxymethyl)-2-(2-methyl-phenyl)-2H-[1,2,3]triazole-4-carbonyl]-amino]-benzoic acid], for which the Kb is 43.7 nM. As to `O=C(O)c1cccc(NC(=O)c2nn(-c3cc(Cl)ccc3Cl)nc2COC23CC4CC(CC(C4)C2)C3)c1` [Example 23, 3-[[5-(Adamantan-1-yloxymethyl)-2-(2,5-dichloro-phenyl)-2H-[1,2,3]triazole-4-carbonyl]-amino]-benzoic acid], the Kb was 151 nM. As for `O=C(O)c1cccc(NC(=O)c2nn(C3CCCCCC3)nc2COC23CC4CC(CC(C4)C2)C3)c1` [Example 15, 3-[[5-(Adamantan-1-yloxymethyl)-2-cycloheptyl-2H-[1,2,3]triazole-4-carbonyl]-amino]-benzoic acid], the Kb is 13.5 nM. On to `O=C(O)c1cccc(NC(=O)c2nnn(-c3ccccc3Br)c2COC23CC4CC(CC(C4)C2)C3)c1` [Example 14, 3-[[5-(Adamantan-1-yloxymethyl)-1-(2-bromo-phenyl)-1H-[1,2,3]triazole-4-carbonyl]-amino]-benzoic acid], for which the Kb was 229 nM. Turning to `O=C(O)c1cccc(NC(=O)c2nn(-c3c(Cl)cccc3Cl)nc2COC2CCCCCC2)c1` [Example 29, 3-{[5-Cycloheptyloxymethyl-2-(2,6-dichloro-phenyl)-2H-[1,2,3]triazole-4-carbonyl]-amino}-benzoic acid], the Kb was 97.7 nM. For the compound `O=C(O)c1cccc(NC(=O)c2nn(C3C4CC5CC(C4)CC3C5)nc2COC23CC4CC(CC(C4)C2)C3)c1` (stereo not shown) [Example 16, 3-[[2-Adamantan-2-yl-5-(Adamantan-1-yloxymethyl)-2H-[1,2,3]triazole-4-carbonyl]-amino]-benzoic acid.], the “Rat stomach pKB” value is recorded as 6.82 ± 0.17. For the compound `Cc1cccc(-n2nc(COC34CC5CC(CC(C5)C3)C4)c(C(=O)Nc3cccc(C(=O)O)c3)n2)c1C` [Example 19, 3-[[5-(Adamantan-1-yloxymethyl)-2-(2,3-dimethyl-phenyl)-2H-[1,2,3]triazole-4-carbonyl]-amino]-benzoic acid], the Kb was 74.1 nM. With `O=C(O)c1cccc(NC(=O)c2nn(-c3ccccc3C(F)(F)F)nc2COC23CC4CC(CC(C4)C2)C3)c1` [Example 7, 3-[[5-(Adamantan-1-yloxymethyl)-2-(2-trifluoromethyl-phenyl)-2H-[1,2,3]triazole-4-carbonyl]-amino]-benzoic acid], the Kb is 67.6 nM. For `Cc1ccc(-n2nc(COC34CC5CC(CC(C5)C3)C4)c(C(=O)Nc3cccc(C(=O)O)c3)n2)c(C)c1` [Example 25, 3-[[5-(Adamantan-1-yloxymethyl)-2-(2,4-dimethyl-phenyl)-2H-[1,2,3]triazole-4-carbonyl]-amino]-benzoic acid], the Kb is 316 nM. As to `CCc1ccccc1-n1nc(COC23CC4CC(CC(C4)C2)C3)c(C(=O)Nc2cccc(C(=O)O)c2)n1` [Example 8, 3-[[5-(Adamantan-1-yloxymethyl)-2-(2-ethyl-phenyl)-2H-[1,2,3]triazole-4-carbonyl]-amino]-benzoic acid], the Kb is 24 nM. For `O=C(O)c1cccc(NC(=O)c2nn(-c3ccccc3[N+](=O)[O-])nc2COC23CC4CC(CC(C4)C2)C3)c1` [Example 26, 3-[[5-(Adamantan-1-yloxymethyl)-2-(2-nitro-phenyl)-2H-[1,2,3]triazole-4-carbonyl]-amino]-benzoic acid], the Kb was 380 nM. Turning to `O=C(O)Cc1cccc(NC(=O)c2nn(-c3c(Cl)cccc3Cl)nc2COC23CC4CC(CC(C4)C2)C3)c1` [Example 31, (3-{[5-(Adamantan-1-yloxymethyl)-2-(2,6-dichloro-phenyl)-2H-[1,2,3]triazole-4-carbonyl]-amino}-phenyl)acetic acid], the Kb is 2820 nM.
